The supplement of paper PMC8671470
± gives the standard deviation of the averaged measurements.

What was measured:
Conditions in all cases: 72 h
BV-173 = test system: BV-173
How it was run: (§1)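 The IC50 was read from log-logistic dose–response fits. Fifteen myeloid leukaemia lines were exposed for 72 h at 37 °C with 5% CO2 to five tenfold doses from 1 to 10,000 nM in duplicate. ATP luminescence, normalised to vehicle and to a 10 µM positive control, was fitted with four parameters.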

HEL [1] = test system: HEL
How it was run: as §1

HL-60 [2] = test system: HL-60
How it was run: as §1

K-562 [3] = test system: K-562
How it was run: as §1

KCL-22 [4] = test system: KCL-22
How it was run: as §1

KG-1 [5] = test system: KG-1
How it was run: as §1

KU-812 [6] = test system: KU-812
How it was run: as §1

LAMA-84 = test system: LAMA-84
How it was run: as §1

ML-2 [7] = test system: ML-2
How it was run: as §1

MOLM-13 [8] = test system: MOLM-13
How it was run: as §1

MV4-11 [9] = test system: MV4-11
How it was run: as §1

Mono-Mac-6 = test system: Mono-Mac-6
How it was run: as §1

NOMO-1 [10] = test system: NOMO-1
How it was run: as §1

SHI-1 [11] = test system: SHI-1
How it was run: as §1

THP-1 [12] = test system: THP-1
How it was run: as §1

HL-60 [13] = test: cell viability (% survival relative to DMSO control); higher = less cytotoxic
How it was run: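 In 384-well plates, the full library was rescreened in duplicate on HL-60 cells in RPMI 1640 with 10% FBS, at 1–10,000 nM in five tenfold concentrations, for 72 h at 37 °C, 5% CO2. Each run also held DMSO or 100 nM of one of three metabolic inhibitors. Viability was measured by CellTiter-Glo and normalised to DMSO wells and to wells with proteasome inhibitor, present at 10 μM. Any area under the curve comes from four-parameter log-logistic fitting with drc and PharmacoGx.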

HEL [14] = test: cell viability (% survival relative to DMSO control, bortezomib = 0%); higher = less cytotoxic
How it was run: (§2)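 Percent survival is reported as the mean of duplicate wells. Cells from 10 AML and 5 CML lines were plated in 384-well plates containing compounds at 1, 10, 100, 1000 or 10000 nM and kept for 72 h at 37 °C in 5% CO2. Readout used CellTiter-Glo luminescence, scaled so that vehicle equals 100% and a 10 µM positive control equals 0%.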

HL-60 [15] = test: as above
How it was run: as §2

K-562 [16] = test: as above
How it was run: as §2

KCL-22 [17] = test: as above
How it was run: as §2

KG-1 [18] = test: as above
How it was run: as §2

KU-812 [19] = test: as above
How it was run: as §2

ML-2 [20] = test: as above
How it was run: as §2

MOLM-13 [21] = test: as above
How it was run: as §2

MV4-11 [22] = test: as above
How it was run: as §2

NOMO-1 [23] = test: as above
How it was run: as §2

SHI-1 [24] = test: as above
How it was run: as §2

THP-1 [25] = test: as above
How it was run: as §2

COC(=O)c1cc2c(C(F)(F)F)cc(-c3ccccc3)cc2n1O [NHI-2]
Conditions	IC50 (cell viability) [µM]
BV-173	> 10
HEL [1]	> 10
HL-60 [2]	> 10
K-562 [3]	> 10
KCL-22 [4]	> 10
KG-1 [5]	> 10
KU-812 [6]	> 10
LAMA-84	> 10
ML-2 [7]	> 10
MOLM-13 [8]	> 10
MV4-11 [9]	> 10
Mono-Mac-6	> 10
NOMO-1 [10]	> 10
SHI-1 [11]	> 10
THP-1 [12]	> 10

cell viability [%], HL-60 [13]
Conditions	0.001 µM	0.01 µM	0.1 µM	1 µM	10 µM
co-treatment: AZD3965 100 nM	101 ± 16	90.5 ± 6	103 ± 8.9	107 ± 4.8	109 ± 7.1
co-treatment: DMSO vehicle	102 ± 3.1	100 ± 4	104 ± 1.4	102 ± 3.6	111 ± 6
co-treatment: GSK2194069 100 nM	103 ± 4.8	94.829 ± 0.083	100 ± 3.5	107.3 ± 0.8	98.4 ± 0.75
co-treatment: pictilisib 100 nM	96.9 ± 18	92.8 ± 10	103 ± 3.6	99.3 ± 8.1	97.3 ± 13

cell viability [%]
Conditions	1 nM	10 nM	100 nM	1000 nM	10000 nM
HEL [14]	83.5	91.9	90.4	89.4	92.5
HL-60 [15]	98.5	90.3	95.2	97.2	96.8
K-562 [16]	98.8	91.1	93.8	87.4	85.4
KCL-22 [17]	91.9	88.8	104	110	92.7
KG-1 [18]	97.6	90.8	100	85.9	97.7
KU-812 [19]	97.6	96.9	97.7	96.8	84.3
ML-2 [20]	94.8	95.1	109	102	107
MOLM-13 [21]	87	80.6	91.3	95.6	105
MV4-11 [22]	99.7	91.1	91.2	85.3	94.3
NOMO-1 [23]	101	102	92.2	97.4	102
SHI-1 [24]	96.6	104	97.3	93.6	96.9
THP-1 [25]	97.4	99.3	104	98.9	108

CCCCCCCC/C=C\CCCCCCCC(=O)Nc1ccccc1 [Octadec-9-Enoic Acid Phenylamide]
Conditions	IC50 (cell viability) [µM]
BV-173	> 10
HEL [1]	> 10
HL-60 [2]	> 10
K-562 [3]	> 10
KCL-22 [4]	> 10
KG-1 [5]	> 10
KU-812 [6]	> 10
LAMA-84	> 10
ML-2 [7]	> 10
MOLM-13 [8]	> 10
MV4-11 [9]	> 10
Mono-Mac-6	> 10
NOMO-1 [10]	> 10
SHI-1 [11]	> 10
THP-1 [12]	> 10

cell viability [%], HL-60 [13]
Conditions	0.001 µM	0.01 µM	0.1 µM	1 µM	10 µM
co-treatment: AZD3965 100 nM	99.2 ± 1.6	98.61 ± 0.52	104 ± 4.4	101 ± 1.6	90.3 ± 8.5
co-treatment: DMSO vehicle	94.5 ± 9.6	91.3 ± 13	103 ± 5.8	101 ± 3.4	105 ± 3.8
co-treatment: GSK2194069 100 nM	93 ± 1.7	98 ± 9.1	103 ± 4.3	98.7 ± 4.8	91.5 ± 6.8
co-treatment: pictilisib 100 nM	98.2 ± 4.6	99 ± 3.9	106 ± 1.2	108 ± 10	91.3 ± 8.9

cell viability [%]
Conditions	1 nM	10 nM	100 nM	1000 nM	10000 nM
HEL [14]	104	92.9	92.3	106	104
HL-60 [15]	96.1	105	113	100	124
K-562 [16]	110	92.7	95.8	104	93.4
KCL-22 [17]	103	95.7	99.5	103	96.6
KG-1 [18]	107	96.9	99.9	99.2	97.4
KU-812 [19]	100	96.3	95.6	96.8	108
ML-2 [20]	113	105	99.9	103	108
MOLM-13 [21]	106	90.3	91.1	98.3	108
MV4-11 [22]	118	100	108	110	82.6
NOMO-1 [23]	97	97.1	97.1	99.2	99.6
SHI-1 [24]	109	94.4	103	100	98
THP-1 [25]	98.7	97.9	103	93.5	107
